Measurements published in patent US4719302A (priority 1987, dated 1988).
In brackets after ≈: the same amount, converted by molar mass. Like-named read-outs stand apart in the source and are kept apart here.

Experiments:
Format in all cases: cell-based
[1] = test system: Candida albicans ATCC 10231; assay: antifungal activity, disc agar assay (Minimum Inhibitory Concentration), Candida albicans
Procedure: (§1) The compounds of the invention are tested to determine their antifungal activity. The assay procedure is as follows:
(§2) The compounds to be tested are solubilized or suspended in appropriate reagent and further diluted in sterile distilled water to provide a range of concentrations from 200 to 10 μg/ml. 20 Lambda portions are placed on sterile dried 1/4 inch paper discs and allowed to dry for 20-30 minutes. Agar plates with a 10 ml base layer are seeded with the fungi in a 4 ml seed layer and allowed to solidify. The impregnated discs are then placed on the seeded agar surface and incubated for the time required for the particular culture.
(§3) The representative fungi are:
Candida albicans ATCC 10231
(§4) All are human pathogens; the first four cause serious systemic mycotic infections as well as local. The trychophyton culture is mainly a dermatophyte.

[2] = test system: Cryptococcus neoformans ATCC 14115; assay: antifungal activity, disc agar assay (Minimum Inhibitory Concentration), Cryptococcus neoformans
Procedure: as §1, §2, §3, §4

[3] = test system: Trichophyton mentagrophytes ATCC 9533; assay: antifungal activity, disc agar assay (Minimum Inhibitory Concentration), Trichophyton mentagrophytes
Procedure: as §1, §2, §3
Trichophyton mentagrophytes
as §4

[4] = test system: Histoplasma capsulatum Yeast Phase ATCC 11407; assay: microbe, parasite or virus in culture; conditions: read-out: Minimum Inhibitory Concentration
[5] = test system: Blastomyces dermatitidis Yeast Phase ATCC 28839; assay: antifungal activity, disc agar assay (Minimum Inhibitory Concentration), Blastomyces dermatitidis yeast phase; conditions: read-out: Minimum Inhibitory Concentration
Procedure: as §1, §2, §3
Blastomyces dermatitidis
as §4

[6] = ATCC10231, Candida Albicans ATCC 10231, read-out: Minimum Inhibitory Concentration
[7] = ATCC14115, Cryptococcus Neoformans ATCC 14115, read-out: Minimum Inhibitory Concentration
[8] = ATCC9533, Trichophyton Mentagrophytes ATCC 9533, read-out: Minimum Inhibitory Concentration
[9] = Blastomyces Dermatitidis Yeast Phase ATCC 28839

SMILES | MIC [1, 6] [µg/mL] | MIC [2, 7] [µg/mL] | MIC [3, 8] [µg/mL] | MIC [4] [µg/mL] | MIC [5, 9] [µg/mL] | MIC ([1]; Candida albicans, ATCC10231, read-out: Minimum Inhibitory Concentration) [µg/mL] | MIC ([2]; Cryptococcus neoformans, ATCC14115, read-out: Minimum Inhibitory Concentration) [µg/mL] | MIC ([3]; Trichophyton mentagrophytes, ATCC9533, read-out: Minimum Inhibitory Concentration) [µg/mL] | MIC [5] [µg/mL]
CCOC(=O)c1cn(CC)c2c(cc(F)c3c2c(=O)c(C(=O)OCC)cn3CC)c1=O [Example 2, 1,7-Diethyl-6-fluoro-1,4,7,10-tetrahydro-4,10-dioxo-1,7-phenanthroline-3,9-dicarboxylic acid diethyl ester] | > 64 | > 64 | > 64 | 64 (≈ 149 µM) | 64 (≈ 149 µM) |  |  |  | 
CCOC(=O)c1c[nH]c2c(cc(F)c3c2c(=O)c(C(=O)O)cn3CC)c1=O [Example 5, 7-Ethyl-6-fluoro-1,4,7,10-tetrahydro-4,10-dioxo-1,7-phenanthroline-3,9-dicarboxylic acid 3-ethyl ester] | > 256 | > 256 | > 256 | > 256 | > 256 |  |  |  | 
CCOC(=O)c1c[nH]c2c(F)cc3c(=O)c(C(=O)O)cn(CC)c3c2c1=O [Example 1, 1-Ethyl-6-fluoro-1,4,7,10-tetrahydro-4,10-dioxo-1,7-phenanthroline-3,9-dicarboxylic acid 9-ethyl ester] | 32 (≈ 85.5 µM) | 64 (≈ 171 µM) | 64 (≈ 171 µM) | 32 (≈ 85.5 µM) | 32 (≈ 85.5 µM) |  |  |  | 
CCOC(=O)c1c[nH]c2c(cc(F)c3c2c(=O)ccn3CC)c1=O [Example 4, 7-Ethyl-6-fluoro-1,4,7,10-tetrahydro-4,10-dioxo-1,7-phenanthroline-3-carboxylic acid ethyl ester] |  |  |  | > 256 |  | > 256 | > 256 | > 256 | > 256
CCn1cc(C(=O)O)c(=O)c2c1c(F)cc1c(=O)c(C(=O)O)cn(CC)c12 [Example 3, 1,7-Diethyl-6-fluoro-1,4,7,10-tetrahydro-4,10-dioxo-1,7-phenanthroline-3,9-dicarboxylic acid] | > 64 | > 64 | > 64 | 64 (≈ 171 µM) | 64 (≈ 171 µM) |  |  |  | 
CCOC(=O)c1c[nH]c2c(cc(F)c3c2c(=O)c(C(=O)OCC)cn3CC)c1=O [Example 6, 7-Ethyl-6-fluoro-1,4,7,10-tetrahydro-4,10-dioxo-1,7-phenanthroline-3,9-dicarboxylic acid diethyl ester] | > 64 | > 64 | > 64 | 64 (≈ 159 µM) | 64 (≈ 159 µM) |  |  |  | 
